Measured values from PMC8426238, “Synthesis and preclinical evaluation of [^11C]MTP38 as a novel PET ligand for phosphodiesterase 7 in the brain” (European Journal of Nuclear Medicine and Molecular Imaging, 2021).

What was measured:
Test in all cases: off-target screen panel
Type in all cases: binding
[1] = test system: Glutamate, NMDA, Agonism; settings: Rat cerebral cortex, [^3H]CGP-39653
[2] = target: T1, Serotonin (5-Hydroxytryptamine) 5-HT1A (Homo sapiens, UniProt P08908); settings: Human recombinant, [^3H]8-OH-DPAT
T1 construct: purchased Eurofins Panlabs Discovery Services (Taiwan)
T1 sequence (P08908 whole entry): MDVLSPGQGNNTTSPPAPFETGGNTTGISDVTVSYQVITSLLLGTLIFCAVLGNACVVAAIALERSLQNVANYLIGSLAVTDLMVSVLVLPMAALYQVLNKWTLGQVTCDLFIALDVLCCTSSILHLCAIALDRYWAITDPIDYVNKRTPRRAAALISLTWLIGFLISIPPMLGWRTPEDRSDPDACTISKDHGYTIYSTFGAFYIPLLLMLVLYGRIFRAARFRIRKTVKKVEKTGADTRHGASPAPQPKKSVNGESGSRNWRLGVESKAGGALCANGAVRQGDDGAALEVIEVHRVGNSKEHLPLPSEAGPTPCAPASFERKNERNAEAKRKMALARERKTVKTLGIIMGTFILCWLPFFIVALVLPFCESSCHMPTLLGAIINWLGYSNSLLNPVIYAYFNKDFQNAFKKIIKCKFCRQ

[3] = target: T2, Cannabinoid CB1 (Homo sapiens, UniProt P21554); settings: Human recombinant, [^3H]SR141716A
T2 construct: purchased Eurofins Panlabs Discovery Services (Taiwan)
T2 sequence (P21554 whole entry): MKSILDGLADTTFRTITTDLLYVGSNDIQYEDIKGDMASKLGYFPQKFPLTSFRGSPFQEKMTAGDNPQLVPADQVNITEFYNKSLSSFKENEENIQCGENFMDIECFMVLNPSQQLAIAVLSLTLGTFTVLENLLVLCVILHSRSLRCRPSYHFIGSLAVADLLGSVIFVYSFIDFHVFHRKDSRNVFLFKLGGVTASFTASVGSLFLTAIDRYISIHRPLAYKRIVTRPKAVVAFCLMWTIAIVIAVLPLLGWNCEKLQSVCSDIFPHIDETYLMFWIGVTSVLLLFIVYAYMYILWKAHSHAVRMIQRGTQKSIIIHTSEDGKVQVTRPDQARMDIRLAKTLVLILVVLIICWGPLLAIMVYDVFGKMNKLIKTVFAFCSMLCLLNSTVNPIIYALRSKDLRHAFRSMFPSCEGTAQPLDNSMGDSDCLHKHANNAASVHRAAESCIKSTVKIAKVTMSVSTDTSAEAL

[4] = target: T3, Bradykinin B1 (Homo sapiens, UniProt P46663); settings: Human IMR-90 cells, [^3H](Des-Arg^10)-Kallidin
T3 construct: purchased Eurofins Panlabs Discovery Services (Taiwan)

[5] = target: T4, Neuropeptide Y Y1 (Homo sapiens, UniProt P25929); settings: Human SK-N-MC cells, [^125I]Peptide YY
T4 construct: purchased Eurofins Panlabs Discovery Services (Taiwan)
T4 sequence (P25929 whole entry): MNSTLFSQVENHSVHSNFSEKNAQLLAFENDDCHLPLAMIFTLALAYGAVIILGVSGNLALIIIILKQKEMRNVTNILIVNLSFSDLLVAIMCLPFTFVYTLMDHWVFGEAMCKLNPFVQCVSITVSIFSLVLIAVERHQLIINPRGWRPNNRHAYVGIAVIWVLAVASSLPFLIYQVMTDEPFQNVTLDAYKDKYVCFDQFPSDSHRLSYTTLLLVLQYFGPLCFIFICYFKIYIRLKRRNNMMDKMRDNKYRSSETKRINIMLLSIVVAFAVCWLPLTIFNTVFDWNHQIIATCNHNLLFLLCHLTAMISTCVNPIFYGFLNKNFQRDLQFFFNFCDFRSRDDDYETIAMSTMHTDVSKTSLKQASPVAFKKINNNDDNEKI

[6] = target: T5, Tachykinin NK1 (Homo sapiens, UniProt P25103); settings: Human recombinant, [^3H]Substance P
T5 construct: purchased Eurofins Panlabs Discovery Services (Taiwan)
T5 sequence (P25103 whole entry): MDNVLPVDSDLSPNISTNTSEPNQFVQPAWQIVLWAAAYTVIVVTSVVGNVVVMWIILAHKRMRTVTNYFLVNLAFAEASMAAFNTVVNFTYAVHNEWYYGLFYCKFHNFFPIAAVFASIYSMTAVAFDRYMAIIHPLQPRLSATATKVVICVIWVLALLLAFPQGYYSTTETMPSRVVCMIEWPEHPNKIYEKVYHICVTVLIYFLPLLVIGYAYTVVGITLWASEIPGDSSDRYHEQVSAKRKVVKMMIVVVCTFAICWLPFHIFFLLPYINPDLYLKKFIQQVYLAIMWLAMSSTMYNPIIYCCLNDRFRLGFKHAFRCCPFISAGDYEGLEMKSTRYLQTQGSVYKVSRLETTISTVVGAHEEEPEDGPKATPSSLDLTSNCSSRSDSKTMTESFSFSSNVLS

[7] = test system: Nicotinic Acetylcholine; settings: Human IMR-32 cells, [^125I]Epibatidine
[8] = target: T6, Serotonin (5-Hydroxytryptamine) 5-HT2B (Homo sapiens, UniProt P41595); settings: Human recombinant, [^3H]Lysergic acid diethylamide (LSD)
T6 construct: purchased Eurofins Panlabs Discovery Services (Taiwan)
T6 sequence (P41595 whole entry): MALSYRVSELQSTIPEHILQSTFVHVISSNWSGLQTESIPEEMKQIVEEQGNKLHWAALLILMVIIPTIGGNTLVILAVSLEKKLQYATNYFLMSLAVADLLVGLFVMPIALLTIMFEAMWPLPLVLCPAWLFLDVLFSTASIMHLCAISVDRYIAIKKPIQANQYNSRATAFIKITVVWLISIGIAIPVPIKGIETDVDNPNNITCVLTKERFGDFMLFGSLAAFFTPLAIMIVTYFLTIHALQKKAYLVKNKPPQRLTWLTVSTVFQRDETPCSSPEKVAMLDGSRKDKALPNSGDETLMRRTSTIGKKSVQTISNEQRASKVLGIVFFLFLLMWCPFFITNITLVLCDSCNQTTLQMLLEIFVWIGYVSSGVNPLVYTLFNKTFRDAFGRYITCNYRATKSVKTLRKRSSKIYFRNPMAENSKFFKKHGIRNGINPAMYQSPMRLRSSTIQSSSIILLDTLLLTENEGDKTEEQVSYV

[9] = target: T7, Dopamine D2S (Homo sapiens, UniProt P14416); settings: Human recombinant, [^3H]Spiperone
T7 construct: purchased Eurofins Panlabs Discovery Services (Taiwan)
T7 sequence (P14416 1-414 isoform P14416-2): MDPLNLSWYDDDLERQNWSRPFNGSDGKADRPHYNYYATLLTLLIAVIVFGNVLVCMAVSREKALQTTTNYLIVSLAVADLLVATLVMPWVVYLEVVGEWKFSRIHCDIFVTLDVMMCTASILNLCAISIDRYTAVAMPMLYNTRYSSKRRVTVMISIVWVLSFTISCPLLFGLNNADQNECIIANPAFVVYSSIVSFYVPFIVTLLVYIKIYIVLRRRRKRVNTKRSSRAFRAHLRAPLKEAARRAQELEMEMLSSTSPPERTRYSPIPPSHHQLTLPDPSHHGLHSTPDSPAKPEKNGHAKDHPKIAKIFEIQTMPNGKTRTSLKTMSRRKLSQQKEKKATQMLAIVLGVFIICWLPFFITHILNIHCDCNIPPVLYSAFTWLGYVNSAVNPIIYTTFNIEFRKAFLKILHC

[10] = test system: Sodium Channel, Site 2; settings: Rat brain, [^3H]Batrachotoxinin
[11] = target: T8, Dopamine D3 (Homo sapiens, UniProt P35462); settings: Human recombinant, [^3H]Spiperone
T8 construct: purchased Eurofins Panlabs Discovery Services (Taiwan)
T8 sequence (P35462 whole entry): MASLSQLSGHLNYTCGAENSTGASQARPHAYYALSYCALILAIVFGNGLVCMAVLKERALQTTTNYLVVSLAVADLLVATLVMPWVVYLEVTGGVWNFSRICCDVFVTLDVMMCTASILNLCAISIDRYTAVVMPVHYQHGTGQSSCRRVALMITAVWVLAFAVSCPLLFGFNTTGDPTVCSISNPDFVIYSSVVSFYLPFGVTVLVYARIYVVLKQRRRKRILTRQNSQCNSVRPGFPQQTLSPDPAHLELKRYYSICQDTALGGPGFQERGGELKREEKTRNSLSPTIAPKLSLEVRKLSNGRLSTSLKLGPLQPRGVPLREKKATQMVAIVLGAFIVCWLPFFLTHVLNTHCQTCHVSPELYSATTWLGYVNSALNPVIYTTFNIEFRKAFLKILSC

[12] = test system: Calcium Channel L-Type, Dihydropyridine; settings: Rat cerebral cortex, [^3H]Nitrendipine
[13] = test system: Glutamate, Kainate; settings: Rat brain cortex, [^3H]Kainic acid
[14] = target: T9, Platelet Activating Factor (PAF) (Homo sapiens, UniProt P25105); settings: Human platelets, [^3H]PAF
T9 construct: purchased Eurofins Panlabs Discovery Services (Taiwan)
T9 sequence (P25105 whole entry): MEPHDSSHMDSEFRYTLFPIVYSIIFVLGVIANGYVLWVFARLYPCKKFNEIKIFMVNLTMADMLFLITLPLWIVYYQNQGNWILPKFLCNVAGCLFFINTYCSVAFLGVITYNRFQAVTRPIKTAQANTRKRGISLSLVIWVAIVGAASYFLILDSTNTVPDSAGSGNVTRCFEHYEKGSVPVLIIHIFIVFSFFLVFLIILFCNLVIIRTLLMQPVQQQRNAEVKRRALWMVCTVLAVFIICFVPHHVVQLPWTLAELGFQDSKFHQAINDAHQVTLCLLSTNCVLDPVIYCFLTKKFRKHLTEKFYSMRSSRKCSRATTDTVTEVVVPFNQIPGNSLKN

[15] = test system: Transporter, GABA; settings: Rat cerebral cortex, [^3H]GABA
[16] = target: T10, Histamine H2 (Homo sapiens, UniProt P25021); settings: Human recombinant, [^125I]Aminopotentidine
T10 construct: purchased Eurofins Panlabs Discovery Services (Taiwan)
T10 sequence (P25021 whole entry): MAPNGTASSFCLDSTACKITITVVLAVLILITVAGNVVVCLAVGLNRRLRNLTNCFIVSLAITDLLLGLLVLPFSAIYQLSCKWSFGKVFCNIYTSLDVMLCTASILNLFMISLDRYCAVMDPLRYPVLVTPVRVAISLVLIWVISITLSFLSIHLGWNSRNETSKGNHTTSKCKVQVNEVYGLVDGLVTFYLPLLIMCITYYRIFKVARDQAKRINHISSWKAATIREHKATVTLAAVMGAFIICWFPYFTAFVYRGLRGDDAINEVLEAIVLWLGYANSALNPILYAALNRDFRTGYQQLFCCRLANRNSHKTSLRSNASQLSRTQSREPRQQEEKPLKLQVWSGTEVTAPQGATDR

[17] = target: T11, Adenosine A2A (Homo sapiens, UniProt P29274); settings: Human recombinant, [^3H]CGS-21680
T11 construct: purchased Eurofins Panlabs Discovery Services (Taiwan)
T11 sequence (P29274 whole entry): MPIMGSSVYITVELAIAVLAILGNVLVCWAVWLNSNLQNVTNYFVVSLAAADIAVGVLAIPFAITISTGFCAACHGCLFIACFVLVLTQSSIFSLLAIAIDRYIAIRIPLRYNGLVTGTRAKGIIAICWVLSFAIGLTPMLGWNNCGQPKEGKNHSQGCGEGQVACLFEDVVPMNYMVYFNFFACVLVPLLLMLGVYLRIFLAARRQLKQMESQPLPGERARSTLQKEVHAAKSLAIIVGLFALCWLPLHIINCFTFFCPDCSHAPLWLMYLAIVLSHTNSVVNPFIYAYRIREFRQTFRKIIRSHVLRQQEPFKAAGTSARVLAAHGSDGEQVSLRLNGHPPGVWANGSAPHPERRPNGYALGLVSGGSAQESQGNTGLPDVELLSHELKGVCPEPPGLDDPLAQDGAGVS

[18] = test system: GABAA, Flunitrazepam, Central; settings: Rat brain (minus cerebellum), [^3H]Flunitrazepam
[19] = target: T12, Bradykinin B2 (Homo sapiens, UniProt P30411); settings: Human recombinant, [^3H]Bradykinin
T12 construct: purchased Eurofins Panlabs Discovery Services (Taiwan)
T12 sequence (P30411 whole entry): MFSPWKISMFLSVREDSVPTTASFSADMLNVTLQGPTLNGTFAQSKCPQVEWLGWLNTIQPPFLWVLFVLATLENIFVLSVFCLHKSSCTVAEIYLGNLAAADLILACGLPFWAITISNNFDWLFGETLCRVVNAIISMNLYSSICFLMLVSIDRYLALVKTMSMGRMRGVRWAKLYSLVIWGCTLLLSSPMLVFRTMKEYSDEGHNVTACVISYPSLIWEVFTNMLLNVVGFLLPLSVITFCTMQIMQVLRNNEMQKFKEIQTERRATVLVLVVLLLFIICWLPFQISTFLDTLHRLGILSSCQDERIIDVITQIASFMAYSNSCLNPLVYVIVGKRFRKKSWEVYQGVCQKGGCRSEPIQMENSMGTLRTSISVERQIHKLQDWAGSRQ

[20] = target: T13, Opiate κ (OP2, KOP) (Homo sapiens, UniProt P41145); settings: Human recombinant, [^3H]Diprenorphine
T13 construct: purchased Eurofins Panlabs Discovery Services (Taiwan)
T13 sequence (P41145 whole entry): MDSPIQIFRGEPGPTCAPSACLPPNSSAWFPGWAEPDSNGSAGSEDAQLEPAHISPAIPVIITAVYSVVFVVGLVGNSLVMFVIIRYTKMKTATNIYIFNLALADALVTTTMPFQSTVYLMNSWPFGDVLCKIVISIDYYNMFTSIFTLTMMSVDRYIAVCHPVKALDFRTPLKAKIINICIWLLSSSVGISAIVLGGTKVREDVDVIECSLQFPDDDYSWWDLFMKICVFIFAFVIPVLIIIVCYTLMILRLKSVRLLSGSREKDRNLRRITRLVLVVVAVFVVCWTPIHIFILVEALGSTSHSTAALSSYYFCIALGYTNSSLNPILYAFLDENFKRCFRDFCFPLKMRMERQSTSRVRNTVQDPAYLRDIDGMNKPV

With C[C@@H]1CC[C@H](C)N(c2nnc3c(N)ncc(C#N)n23)C1 (relative stereo) [MTP38, 8-amino-3-(2S*,5R*-dimethyl-1-piperidyl)-[1,2,4]triazolo[4,3-a]pyrazine-5-carbonitrile] as the molecule, how does the “Inhibition (%) at 1 μM” value [1] read?
Its value is -3%.

What about the inhibition at 1 µM [2] of the same molecule?
The inhibition at 1 µM was -5%.

And the inhibition at 1 µM [3]?
The inhibition at 1 µM was -6%.

And the inhibition at 1 µM [4]?
The inhibition at 1 µM was 9%.

And the inhibition at 1 µM [5]?
The inhibition at 1 µM was -13%.

What about the inhibition at 1 µM [6] of the same molecule?
Its inhibition at 1 µM is 9%.

And the “Inhibition (%) at 1 μM” value [7]?
Its value is -8%.

What about the inhibition at 1 µM [8] of the same molecule?
Its inhibition at 1 µM is -1%.

And the inhibition at 1 µM [9]?
The inhibition at 1 µM was 4%.

What about the “Inhibition (%) at 1 μM” value [10] of the same molecule?
The value was 1%.

What about the inhibition at 1 µM [11] of the same molecule?
The inhibition at 1 µM was 0%.

What about the “Inhibition (%) at 1 μM” value [12] of the same molecule?
Its value is 7%.

And the “Inhibition (%) at 1 μM” value [13]?
Its value is -2%.

And the inhibition at 1 µM [14]?
The inhibition at 1 µM was 4%.

What about the “Inhibition (%) at 1 μM” value [15] of the same molecule?
The value was -2%.

And the inhibition at 1 µM [16]?
The inhibition at 1 µM was -9%.

What about the inhibition at 1 µM [17] of the same molecule?
Its inhibition at 1 µM is 4%.

What about the “Inhibition (%) at 1 μM” value [18] of the same molecule?
The value was -2%.

What about the inhibition at 1 µM [19] of the same molecule?
Its inhibition at 1 µM is 2%.

What about the inhibition at 1 µM [20] of the same molecule?
The inhibition at 1 µM was 9%.
